This is an account of results in PMC10800708, “Efficacies and ADME properties of redox active methylene blue and phenoxazine analogues for use in new antimalarial triple drug combinations with amino-artemisinins” (Frontiers in Pharmacology, 2024).

SMILES strings stand for the structures. Several values for one entry are separate records, joined by “and”; a condition that tells them apart may be missing. Equal entries are not always repeated. Where two headings read alike, the source gives them in different places.

For data set [1], the system named is Plasmodium falciparum NF54. In words: Parasite lactate dehydrogenase (pLDH) assay over 72 h, CQ-sensitive strain. In kind it is cell-based. The method, then: (§1) The assay was performed in quadruplicate. The data were analyzed by nonlinear regression analysis using the GraphPad PRISM version 5.00 program to determine the IC50 of each compound.
For data set [2], the system named is Plasmodium falciparum DD2. In words: Parasite lactate dehydrogenase (pLDH) assay over 72 h, CQ-resistant strain. To be noted: for IC50: Plasmodium falciparum, read-out: Plasmodium falciparum IC50 DD2. In kind it is cell-based. The method, then: as §1
In data set [3] the test system is Chinese Hamster Ovary (CHO) cell line, CHO-K1. In words: MTT cytotoxicity assay. In kind it is cell-based. The method, then:
Cytotoxicity assays were conducted against the Chinese Hamster Ovary (CHO) cell line, ATCC CCL-61, strain CHO-K1. […] Cells were grown at 37°C in a humidified atmosphere of 5% CO2 and maintained by passage. Cells lines were seeded in 96-well microtitre plates at 10^4 cells/well in cell medium. […] DMSO (100 µL) was added to dissolve the MTT formazan precipitate, and the plates were gently agitated for 2 min to ensure homogeneity. Absorbance was measured at 540 nm using a Turner BioSystems, Inc. ModulusTM II Microplate Reader. The data were analyzed by nonlinear regression analysis using the GraphPad PRISM version 5.00 program to determine the IC50 of each compound.
(In general: Tetrazolium dyes change colour on reduction, which living cells bring about.)

A short description of data set [4]: Kinetic solubility in PBS. In kind it is physicochemical. To be noted: phosphate buffer saline (PBS), aqueous buffer, kinetic from dmso stock. The method, then: . […] The aqueous mobile phase was water with 0.1% formic acid and the organic mobile phase was acetonitrile with 0.1% formic acid. The gradient method has a flow rate of 0.8 mL/min, with a total run time of 2.5 min starting at 5% organic and increasing to 95% at 1.4 min, holding for 40 s before returning to 5% to re-equilibrate the column. • ii. Lipophilicity. Stock solutions (10 mM) of compounds were diluted to 100 μM in 96-well deep-well plate containing 300 µL of 1-octanol and 300 µL of phosphate buffer at pH 7.4. The plate was agitated on an orbital shaker at 750 rpm for 2 h. The organic and buffer layers of each well were transferred separately to a new analysis plate. The samples were analysed with the HPLC diode array detection as described for kinetic solubility. Samples from both layers were analysed to determine LogD7.4 values. • iii. Passive permeability. A parallel artificial membrane permeation assay (PAMPA) was used to assess the passive permeability of compounds with a 96-well MultiScreen filter plate ([…] pore size, Millipore). The filter plate was precoated with 5% hexadecane in hexane. Stock solutions of compounds were diluted to 1 mM in a donor buffer (pH 6.5). Lucifer yellow was added to the apical wells of the precoated MultiScreen plate containing compound donor solution. The donor buffer solutions were spiked with each test compound (1 mM). The acceptor-buffer solution was prepared by adding 10 μL DMSO to 990 μL acceptor buffer (pH 7.4) and 250 μL were added to the basolateral (acceptor) wells. The donor plate was carefully inserted into the acceptor plate and incubated at room temperature for 4 h. After the incubation period, 50 μL of samples from the acceptor plate were transferred to a round bottom 96-well plate, together with 30 μL of donor buffer for matrix matching. Theoretical equilibrium samples for each test compound were prepared by adding 150 μL of donor solutions to 250 μL acceptor solutions and left at room temperature. These theoretical equilibrium samples represent complete transfer of the compound into the donor well. For the theoretical equilibrium samples, 80 μL were added to the analysis plate. Lastly, 160 μL of the internal standard carbamazepine (0.1 μM) was added to all acceptor and equilibrium samples. A portion of the sample containing Lucifer yellow was analyzed on a BioRad iMarkTM Microplate Absorbance Reader (BioRad, Hercules, CA, United States; […]. Samples were analysed using reverse phase Gemini NX-C18 column (5 μm, 2.1 mm × 50 mm) with a Shimadzu HPLC coupled with an AB Sciex 3200 Q TRAP MS). […]. Plasma stability. Stock solutions of compounds in DMSO (10 mM) were used to spike pooled human plasma. 90 μL of each sample was transferred in duplicate to 6 different wells of a 96-deep well plate. An aliquot of each sample was immediately quenched with ice cold acetonitrile containing the internal standard carbamazepine (0.1 µM), after which the plate was incubated in a water bath (37°C for […]). Aliquots of samples were removed at 5, 15, 40, 60 and 180 min and quenched with ice cold acetonitrile. After samples of the final time point were precipitated, the supernatant was transferred to a round bottom 96-well plate for analysis by LC-MS/MS using a reverse phase Gemini NX-C18 column (5 μm, 2.1 mm × 50 mm) with a Shimadzu HPLC coupled with an AB Sciex 3200 Q TRAP MS) operated at unit resolution in the multiple reaction monitoring (MRM) mode. The aqueous phase consisted of water with 0.1% formic acid and the organic mobile phase consisted of methanol and acetonitrile (1:1, (v/v)) with 0.1% formic acid. […]. The peak area ratios were used to calculate the amount of parent compound remaining and t1/2 in plasma, using the following equations.

Data set [5] can be described thus: Plasma stability in pooled human plasma. In kind it is in vitro ADME. Conditions: 37°C. The method, then: . […] The aqueous mobile phase was water with 0.1% formic acid and the organic mobile phase was acetonitrile with 0.1% formic acid. The gradient method has a flow rate of 0.8 mL/min, with a total run time of 2.5 min starting at 5% organic and increasing to 95% at 1.4 min, holding for 40 s before returning to 5% to re-equilibrate the column. • ii. Lipophilicity. Stock solutions (10 mM) of compounds were diluted to 100 μM in 96-well deep-well plate containing 300 µL of 1-octanol and 300 µL of phosphate buffer at pH 7.4. The plate was agitated on an orbital shaker at 750 rpm for 2 h. The organic and buffer layers of each well were transferred separately to a new analysis plate. The samples were analysed with the HPLC diode array detection as described for kinetic solubility. Samples from both layers were analysed to determine LogD7.4 values. • iii. Passive permeability. A parallel artificial membrane permeation assay (PAMPA) was used to assess the passive permeability of compounds with a 96-well MultiScreen filter plate ([…] pore size, Millipore). The filter plate was precoated with 5% hexadecane in hexane. Stock solutions of compounds were diluted to 1 mM in a donor buffer (pH 6.5). Lucifer yellow was added to the apical wells of the precoated MultiScreen plate containing compound donor solution. The donor buffer solutions were spiked with each test compound (1 mM). The acceptor-buffer solution was prepared by adding 10 μL DMSO to 990 μL acceptor buffer (pH 7.4) and 250 μL were added to the basolateral (acceptor) wells. The donor plate was carefully inserted into the acceptor plate and incubated at room temperature for 4 h. After the incubation period, 50 μL of samples from the acceptor plate were transferred to a round bottom 96-well plate, together with 30 μL of donor buffer for matrix matching. Theoretical equilibrium samples for each test compound were prepared by adding 150 μL of donor solutions to 250 μL acceptor solutions and left at room temperature. These theoretical equilibrium samples represent complete transfer of the compound into the donor well. For the theoretical equilibrium samples, 80 μL were added to the analysis plate. Lastly, 160 μL of the internal standard carbamazepine (0.1 μM) was added to all acceptor and equilibrium samples. A portion of the sample containing Lucifer yellow was analyzed on a BioRad iMarkTM Microplate Absorbance Reader (BioRad, Hercules, CA, United States; […]. Samples were analysed using reverse phase Gemini NX-C18 column (5 μm, 2.1 mm × 50 mm) with a Shimadzu HPLC coupled with an AB Sciex 3200 Q TRAP MS). […]. Plasma stability. Stock solutions of compounds in DMSO (10 mM) were used to spike pooled human plasma. […]
. Plasma protein binding was determined in pooled human plasma using an ultracentrifugation method. […]

Data set [6] in a line: Metabolic stability in mouse liver microsomes. Format: in vitro ADME. The method, then: (§2) Eq. 4 Predicted t1/2 t1/2=−0.693/λ (4) Where λ is the slope of the Ln % parent remaining vs. time curve. • v. Plasma protein binding. Plasma protein binding was determined in pooled human plasma using an ultracentrifugation method. Stock solutions of test compounds (10 mM) were diluted in phosphate buffer and spiked into plasma in deep well 96-well plates (10 µM). An aliquot of each compound was immediately precipitated with ice cold acetonitrile containing the internal standard carbamazepine (0.1 μM). These served as total concentration samples. After incubation in a water bath at 37°C for 1 h, the samples were transferred to ultracentrifuge tubes in duplicate and centrifuged for 4 h at 37°C and 30,000 g (Optima L-80XP, Beckman). Following centrifugation, the supernatant was transferred to the plate containing the total concentration samples and precipitated with ice cold acetonitrile containing the internal standard. Analyte concentrations of all compounds were determined via LC-MS/MS (reverse phase Gemini NX-C18 column and Shimadzu HPLC coupled with an AB Sciex 3200 Q TRAP MS) as described above. • vi. Metabolic stability. A 5-point metabolic stability assay in human and mouse liver microsomes were performed in duplicate in 96-well plates. […] The cofactor NADPH was added, and the reactions were subsequently stopped at time points 5, 10, 30 and 60 min by removal of an aliquot and quenching with ice cold acetonitrile containing the internal standard. The supernatant of all samples was analysed via LC-MS/MS analysis (reverse phase Gemini NX-C18 column and Shimadzu HPLC and AB Sciex 3200 Q TRAP MS) as described above.
A general note: Liver microsomes are vesicles of endoplasmic reticulum, rich in cytochrome P450 enzymes.

A short description of data set [7]: Metabolic stability in human liver microsomes. Format: in vitro ADME. The method, then:
as §2

A short description of data set [8]: In vivo PK, iv and oral, whole blood. More on the design: species or system C57BL/6 mice. The method, then:
• i. Animals. […] Food and water were available ad libitum. Mice were acclimatised to the experimental environment for 4-5 days prior to initiating the experiments. • ii. Oral drug administration. AD01 and PhX6 were prepared in 100% Millipore […] prepared in an aqueous suspension of 0.5% HPMC (w/v) containing 0.2% Tween 80 (v/v). The weighed compounds were sonicated and vortexed to ensure all solutions were homogenous. […] The total volume per administration was 200 μL. Blood samples were collected post-dose in lithium heparin microvials via tail bleeding at predetermined intervals at 0.5, 1, 3, 5, 8, 10 and 24 h. Samples were gently vortexed and stored at -80°C until analysis. • iii. Intravenous administration. AD01 and PhX6 were prepared in 100% Millipore […] prepared in an organic vehicle consisting of 10% N,N-dimethylacetamide, 30% polyethylene glycol 400 (PEG), 50% polypropylene glycol (PPG) and 10% ethanol (1:3:5:1, v/v) for intravenous (iv) dosing at 10 mg/kg. The total volume of administration was 80 μL. Blood samples were collected post-dose in lithium heparin microvials via tail bleeding at predetermined intervals at 0.16, 0.5, 1, 3, 5, 8, 10 and 24 h. Samples were gently vortexed and stored at -80°C until analysis. • iv. Sample processing and analysis. […] The mixture was vortexed vigorously for 1 min, and 5 μL of the supernatant were injected onto the analytical column following centrifugation (5590 g for 5 min). A Shimadzu HPLC and reverse phase Gemini NX-C18 column coupled to an AB Sciex 3200 Q TRAP MS was operated at unit resolution in the multiple reaction monitoring (MRM) mode as described above. […] Data analysis. Drug concentration versus time plots for each compound were used to determine maximal drug concentration C max, time T max to reach C max, elimination half-life t 1/2 and the area under the concentration-time curve from time zero to infinity, AUC0-inf. From these values the PK parameters clearance CL, volume of distribution Vd and oral bioavailability BA were determined using the non-compartmental analysis Microsoft Excel Add-In PKSolver ([Zhang et al., 2010]).

Setting [9] is: C57BL/6, mouse, 10 mg/kg, mice, intravenous, whole blood.
Setting [10] is: C57BL/6, mouse, whole blood, po, 5 mg/kg.

For the compound `C[C@H]1[C@H](N2CCS(=O)(=O)CC2)O[C@@H]2O[C@@]3(C)CC[C@H]4[C@H](C)CC[C@@H]1[C@@]24OO3` [AMS, artemisone], the half-inhibitory concentration (IC50) (usually the concentration that inhibits the measured activity by half) is 4.5 ± 2.42 nM in data set [1] (CQ-sensitive NF54, pLDH 72 h, n = 3, read-out: Plasmodium falciparum IC50 NF54); 5.48 ± 2.03 nM in data set [2] (CQ-resistant DD2, pLDH 72 h, n = 3); above 249000 nM in data set [3] (Cricetulus griseus, CHO cells, MTT). Besides, the Resistance index in data set [2] (IC50 (resistant strain)/IC50 (sensitive strain), DD2/NF54) is recorded as 1.2. Further, the “Selectivity index CHO/resistant Pf strain” value in data set [3] (cytotoxicity IC50/activity IC50, CHO/DD2) is >1,000. In addition, the “Selectivity index CHO/sensitive Pf strain” value in data set [3] (cytotoxicity IC50/activity IC50, CHO/NF54) is given as >1,000.

Take `CCN(CC)CCCC(C)Nc1ccnc2cc(Cl)ccc12` (centres unmarked) [CQ, chloroquine, reference compound]: the IC50 stood at 9.9 ± 0.4 nM in data set [1] (NF54, 72 h, read-out: Plasmodium falciparum IC50 NF54) and 142 ± 16.8 nM in data set [2] (DD2, 72 h).

With `CCNC(=S)NN=C(c1ccccn1)c1ccccn1` [DpNEt], the solubility (in general, the dissolved amount per volume that the medium holds) at 2 h in data set [4] (PBS pH 2, read-out: Predicted solubility pH 2) is above 150 µM; in data set [4] (PBS pH 6.5, read-out: Predicted solubility pH 6.5) it was above 150 µM; in data set [4] (PBS pH 7.4, read-out: Predicted solubility pH 7.4) it was above 150 µM. The half-life in data set [5] is above 2.5 h; in data set [8] (C57BL/6, mouse, whole blood, iv, 10 mg/kg, mice, intravenous, whole blood, read-out: t1/2 (converted)), 1.2 h. In addition, the results for the CLint scaled in data set [6] and in data set [7] were 22.3 mL/min/kg and 4 mL/min/kg, respectively. Besides, the Vd in data set [8] (setting [9]) was found to be 1 ± 0.16 L/kg. This compound also displayed a clearance in data set [8] (setting [9]) of 10.2 ± 0.93 mL/min/kg. Also, in data set [8] (setting [10]), the concentration peaked (Cmax) at 6.32 ± 1.15 µM. Further, the Tmax (as a rule, the time at which the peak concentration occurs) in data set [8] (setting [10]) was 0.7 ± 0.12 h. Also, the “AUC0-∞” value in data set [8] (mice, intravenous, whole blood) is 1795 ± 198 µmol·min/L; in data set [8] (mice, oral gavage: AD01 4.6, PhX6 4.5, DpNEt 5 mg/kg), 550 ± 148 µmol·min/L. This compound returned a t1/2 in data set [8] (mice, intravenous, whole blood) of 1.12 ± 0.13 h. In addition, the BA in data set [8] (mice, oral bioavailability) is 8% and 8 ± 2%.
